Tested on: Adult L. serricata (blowflies)
Experiment: Test A: adult blowflies on blood agar containing test compound, scored by number of dead flies
Assay type: in vivo
Conditions: 4 flies in test
Protocol: • Adult L. serricata (blowflies): Adult flies are placed on beds of blood agar (in individual test wells; 4 flies per well) in which test compound, (3-bromo-N-[4-chloro-2-methyl-6-[(methylamino)carbonyl]phenyl]-1-(3-chloro-2-pyridinyl)-1H-pyrazole-5-carboxamide), was dissolved/suspended prior to hardening of agar. Flies can take up test compound by both ingestion and contact. Assays are scored by number of dead flies at 2 hours, 4 hours, and 24 hours.

Compound | Number dead flies at 2 hours (1 ppm in blood agar) | Number dead flies at 4 hours (1 ppm in blood agar) | Number dead flies at 24 hours (1 ppm in blood agar) | Number dead flies at 2 hours (10 ppm in blood agar) | Number dead flies at 4 hours (10 ppm in blood agar) | Number dead flies at 24 hours (10 ppm in blood agar) | Number dead flies at 2 hours (25 ppm in blood agar) | Number dead flies at 4 hours (25 ppm in blood agar) | Number dead flies at 24 hours (25 ppm in blood agar) | Number dead flies at 2 hours (50 ppm in blood agar) | Number dead flies at 4 hours (50 ppm in blood agar) | Number dead flies at 24 hours (50 ppm in blood agar) | Number dead flies at 2 hours (100 ppm in blood agar) | Number dead flies at 4 hours (100 ppm in blood agar) | Number dead flies at 24 hours (100 ppm in blood agar)
CNC(=O)c1cc(Cl)cc(C)c1NC(=O)c1cc(Br)nn1-c1ncccc1Cl [Test Compound, 3-bromo-N-[4-chloro-2-methyl-6-[(methylamino)carbonyl]phenyl]-1-(3-chloro-2-pyridinyl)-1H-pyrazole-5-carboxamide] | 0 | 0 | 0 | 0 | 0 | 1 | 0 | 0 | 2 | 0 | 0 | 2 | 0 | 0 | 3
CCOP(=S)(OCC)Oc1nc(Cl)c(Cl)cc1Cl [Chloropyriphos, O,O-diethyl-O-3,5,6-trichloro-2-pyridyl-phosphorothioate] | 0 | 1 | 4 | 1 | 4 | 4 | 3 | 4 | 4 | 4 | 4 | 4 | 4 | 4 | 4

Reference: patent US20090036499A1, “FLY CONTROL METHOD” (priority 2007, published 2009)
